Reference: patent US20190365710A1, “METHODS OF TREATING CANCER” (GlaxoSmithKline Intellectual Property Development Limited, priority 2016, published 2019)
Like-named read-outs stand apart in the source and are kept apart here.

Legend:
[1] = tested on: human renal cell carcinoma xenografts (ACHN); assay: ACHN xenograft tumor growth; assay type: in vivo, SCID mice; settings: for Body weight Difference (vs. vehicle): ACHN (ccRCC)
[2] = tested on: Prostate cancer cell lines; assay: 6-day growth-death assay (Cell Titer Glo); assay type: cell-based, human; settings: 4 cell lines
[3] = tested on: arginine methylation in Toledo DLBCL cells; assay: Western analysis of arginine methylation marks (ADMA, SDMA, MMA); assay type: cell-based, human
Description: (B) Representative western blots of arginine methylation marks. Regions quantified are denoted by black bars on the right of the gel.
(B) Representative western blots of arginine methylation marks. Regions quantified for (A) are denoted by black bars on the side of the gel.
As predicted, ADMA methylation decreased while MMA increased upon compound exposure (FIG. 12). […] Given the detection of numerous substrates with varying kinetics, and variability of ADMA levels among DMSO-treated samples, both the full lane and a prominent 45 kDa band were characterized to assess ADMA. Increases in MMA were apparent by 24 hours and near maximal by 48 hours while decreases in the 45 kDa ADMA band required 72-96 hours to achieve maximal effect. Increases in SDMA were apparent after 48 hours of compound exposure and continued to increase through 120 hours, consistent with the potential switch from conversion of MMA to ADMA by Type I PRMTs to SDMA by Type II PRMTs (FIG. 12).
Cells were then washed, cultured in Compound A-free media, samples were collected daily through 120 hours, and arginine methylation levels were examined by western analysis. […] SDMA appeared to continue to increase even after 6 hours of washout. This is consistent with the continued increase observed through 120 hours without any obvious plateau (FIG. 12) coupled with the durable increase in MMA that has not yet returned to baseline after washout. Durability of each modification generally reflected the kinetics of arginine methylation changes brought about by Compound A, with MMA being the most rapid.

[4] = target: PRMT9 (Homo sapiens, UniProt Q6P2P2); assay: PRMT family radioactive assay; assay type: biochemical; settings: Type II; 60 minute SAM:Enzyme:Compound A preincubation
[5] = tested on: NSC-LC cell lines; assay: 6-day growth-death assay (Cell Titer Glo); assay type: cell-based, human; settings: for IC50: Homo sapiens, read-out: Median gIC50, Lung (NSCLC); for Median % Ymin − T0: Lung (NSCLC)
[6] = tested on: Kidney cancer cell lines; assay: 6-day growth-death assay (Cell Titer Glo); assay type: cell-based, human; settings: 10 cell lines
[7] = tested on: 196 human cancer cell lines; assay: 6-day growth-death assay (Cell Titer Glo); assay type: cell-based
[8] = target: PRMT8 (Homo sapiens, UniProt Q9NR22); assay: biochemical
[9] = tested on: Lymphoma cell lines; assay: 6-day growth-death assay (Cell Titer Glo); assay type: cell-based, human; settings: for IC50: Homo sapiens, read-out: Median gIC50, Lymphoma
[10] = tested on: Toledo
Procedure: (§1) FIG. 18: Propidium iodide FACS analysis of cell cycle in human lymphoma cell lines. […] Data represents the average±SEM of biological replicates, n=2.
(§2) By day 7, an increase in the sub-G1 population was apparent at concentrations ≥100 nM.

[11] = tested on: OCI-Ly1; settings: only at this concentration
Procedure: as §1, §2

[12] = tested on: U2932; settings: only at this concentration
Procedure: as §1, §2

[13] = tested on: Breast cancer cell lines; assay: 6-day growth-death assay (Cell Titer Glo); settings: for IC50: Homo sapiens
Procedure: Cell lines representing triple negative breast cancer (TNBC) are shown in orange; other subtypes are in blue.
(§3) The growth of all cell lines was evaluated over time across a wide range of seeding densities to identify conditions that permitted proliferation throughout the entire 6-day assay. Cells were plated at the optimal seeding density and after overnight incubation, a 20-point 2-fold titration of compound was added and plates were incubated for 6 days. A replicate plate of cells was harvested at the time of compound addition to quantify the starting number of cells (To). Values obtained after the 6 day treatment were expressed as a function of the To value and plotted against compound concentration. The To value was normalized to 100% and represents the number of cells at the time of compound addition. The data were fit with a 4 parameter equation to generate a concentration response curve and the growth IC50 (gIC50) was determined. The gIC50 is the midpoint of the ‘growth window’, the difference between the number of cells at the time of compound addition (T0) and the number of cells after 6 days (DMSO control). The growth-death assay can be used to quantify the net population change, clearly defining cell death (cytotoxicity) as fewer cells compared to the number at the time of compound addition (T0).

[14] = tested on: ACHN; assay: 6-day growth-death assay (Cell Titer Glo); assay type: cell-based; settings: Homo sapiens, 144 h, read-out: gIC50
Procedure: as §3

[15] = tested on: SK-MEL-5; assay: 6-day growth-death assay (Cell Titer Glo); assay type: cell-based; settings: Homo sapiens, SK-MEL-5, 144 h, read-out: gIC50
Procedure: as §3

[16] = tested on: A375; assay: 6-day growth-death assay (Cell Titer Glo); assay type: cell-based; settings: Homo sapiens, A-375, 144 h, read-out: gIC50
Procedure: as §3

[17] = tested on: HL-60; assay: 6-day growth-death assay (Cell Titer Glo); assay type: cell-based; settings: Homo sapiens, HL-60, 144 h, read-out: gIC50
Procedure: as §3

[18] = tested on: ccRCC cell lines; settings: only at the highest concentration
[19] = tested on: MDA-MB-435S; assay: 6-day growth-death assay (Cell Titer Glo); assay type: cell-based, human
Procedure: as §3

[20] = tested on: Melanoma cell lines; assay: 6-day growth-death assay (Cell Titer Glo); settings: for IC50: Homo sapiens, read-out: Median gIC50, Melanoma
Procedure: as §3

[21] = tested on: Bladder cancer cell lines; assay: 6-day growth-death assay (Cell Titer Glo); assay type: cell-based, human; settings: for IC50: Homo sapiens, read-out: Median gIC50, Bladder
[22] = tested on: Colon cancer cell lines; assay: 6-day growth-death assay (Cell Titer Glo); assay type: cell-based, human
[23] = target: PRMT5/MEP50 (Homo sapiens, UniProt O14744); assay: PRMT family radioactive assay; assay type: biochemical; settings: Type II; 60 minute SAM:Enzyme:Compound A preincubation
[24] = tested on: Toledo (human DLBCL) xenograft; assay: Toledo xenograft tumor growth; settings: for Body weight Difference (vs. vehicle): Toledo (DLBCL)
[25] = tested on: AML cell lines; assay: 6-day growth-death assay (Cell Titer Glo); assay type: cell-based, human
[26] = target: PRMT6 (Homo sapiens, UniProt Q96LA8); assay: biochemical
[27] = tested on: AML cell lines; assay: Methylscan proteomic evaluation of arginine methylation; assay type: cell-based; settings: AML cell lines treated with the tool compound vs DMSO
Description: FIG. 3: Methylscan evaluation of cell lines treated with Compound D. Percent of proteins with methylation changes (independent of directionality of change) are categorized by functional group as indicated.
To identify putative PRMT1 substrates, a proteomic approach (Methylscan, Cell Signaling Technology) was utilized to identify proteins with changes in arginine methylation states in response to a tool PRMT1 inhibitor, Compound D. Protein fragments from Compound D- and DSMO-treated cell extracts were immunoprecipitated using methyl arginine specific antibodies (ADMA, MMA, SDMA), and peptides were identified by mass spectrometry.

[28] = 0.4 μM Compound A for 72 hours then washout
[29] = Homo sapiens, 144 h, read-out: Median gIC50

Chain of PRMT9 (Q6P2P2 whole entry): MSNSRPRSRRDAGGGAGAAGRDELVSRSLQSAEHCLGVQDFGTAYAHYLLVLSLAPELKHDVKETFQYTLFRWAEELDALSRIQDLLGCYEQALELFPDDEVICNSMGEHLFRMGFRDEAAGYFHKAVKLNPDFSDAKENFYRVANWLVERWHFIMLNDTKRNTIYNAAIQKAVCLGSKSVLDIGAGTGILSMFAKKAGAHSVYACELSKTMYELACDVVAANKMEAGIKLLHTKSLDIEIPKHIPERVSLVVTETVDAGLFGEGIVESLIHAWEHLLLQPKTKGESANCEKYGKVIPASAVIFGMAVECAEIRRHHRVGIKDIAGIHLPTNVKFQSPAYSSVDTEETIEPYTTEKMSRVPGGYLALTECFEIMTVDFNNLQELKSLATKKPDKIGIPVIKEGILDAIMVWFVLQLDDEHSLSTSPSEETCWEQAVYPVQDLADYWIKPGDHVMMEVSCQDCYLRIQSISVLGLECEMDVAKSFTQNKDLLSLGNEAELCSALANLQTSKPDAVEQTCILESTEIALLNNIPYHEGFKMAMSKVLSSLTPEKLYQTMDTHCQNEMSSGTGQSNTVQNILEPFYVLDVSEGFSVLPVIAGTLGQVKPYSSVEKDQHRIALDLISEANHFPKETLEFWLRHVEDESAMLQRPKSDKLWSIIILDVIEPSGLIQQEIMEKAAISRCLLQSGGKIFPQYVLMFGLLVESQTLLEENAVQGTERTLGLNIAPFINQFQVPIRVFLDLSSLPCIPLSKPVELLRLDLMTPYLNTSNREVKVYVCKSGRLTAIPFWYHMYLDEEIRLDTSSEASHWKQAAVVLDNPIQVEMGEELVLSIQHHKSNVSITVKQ
Chain of PRMT5/MEP50 (O14744 whole entry): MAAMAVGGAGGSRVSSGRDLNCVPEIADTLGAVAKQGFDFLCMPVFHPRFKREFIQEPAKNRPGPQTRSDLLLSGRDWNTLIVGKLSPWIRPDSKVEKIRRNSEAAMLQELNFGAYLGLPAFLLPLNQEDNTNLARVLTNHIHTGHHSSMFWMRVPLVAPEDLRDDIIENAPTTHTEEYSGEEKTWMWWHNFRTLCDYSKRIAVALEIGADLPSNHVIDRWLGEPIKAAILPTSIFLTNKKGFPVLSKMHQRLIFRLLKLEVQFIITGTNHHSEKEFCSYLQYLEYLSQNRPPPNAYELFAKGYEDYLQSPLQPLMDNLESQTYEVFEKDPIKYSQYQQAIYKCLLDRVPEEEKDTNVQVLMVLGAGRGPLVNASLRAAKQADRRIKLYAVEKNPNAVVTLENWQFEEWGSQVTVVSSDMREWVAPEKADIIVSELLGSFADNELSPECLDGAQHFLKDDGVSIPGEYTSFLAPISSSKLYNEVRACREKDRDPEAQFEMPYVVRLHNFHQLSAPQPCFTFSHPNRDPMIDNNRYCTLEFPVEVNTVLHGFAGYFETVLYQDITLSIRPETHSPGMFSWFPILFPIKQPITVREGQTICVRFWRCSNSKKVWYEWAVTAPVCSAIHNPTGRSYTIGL
Chain of PRMT5/MEP50 (Q9BQA1 whole entry partner): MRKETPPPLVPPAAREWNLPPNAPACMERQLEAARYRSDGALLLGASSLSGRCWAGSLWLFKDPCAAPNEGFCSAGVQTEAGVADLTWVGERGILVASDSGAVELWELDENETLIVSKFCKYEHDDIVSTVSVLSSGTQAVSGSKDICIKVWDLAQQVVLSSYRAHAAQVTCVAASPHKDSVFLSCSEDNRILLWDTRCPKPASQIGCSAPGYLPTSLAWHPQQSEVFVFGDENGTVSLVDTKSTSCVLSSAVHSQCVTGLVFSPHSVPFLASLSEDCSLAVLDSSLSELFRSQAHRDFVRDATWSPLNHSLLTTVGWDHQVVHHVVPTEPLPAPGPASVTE
Chain of PRMT6 (Q96LA8 whole entry): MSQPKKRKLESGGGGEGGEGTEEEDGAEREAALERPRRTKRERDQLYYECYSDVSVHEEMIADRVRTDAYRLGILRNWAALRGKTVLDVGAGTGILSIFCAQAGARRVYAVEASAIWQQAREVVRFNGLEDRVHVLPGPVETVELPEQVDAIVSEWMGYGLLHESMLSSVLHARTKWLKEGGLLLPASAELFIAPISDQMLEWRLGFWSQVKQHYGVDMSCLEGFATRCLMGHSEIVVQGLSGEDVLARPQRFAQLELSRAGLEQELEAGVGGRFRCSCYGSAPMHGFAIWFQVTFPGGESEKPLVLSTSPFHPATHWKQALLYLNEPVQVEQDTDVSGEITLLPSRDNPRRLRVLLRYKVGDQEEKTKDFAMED
Chain of PRMT8 (Q9NR22 whole entry): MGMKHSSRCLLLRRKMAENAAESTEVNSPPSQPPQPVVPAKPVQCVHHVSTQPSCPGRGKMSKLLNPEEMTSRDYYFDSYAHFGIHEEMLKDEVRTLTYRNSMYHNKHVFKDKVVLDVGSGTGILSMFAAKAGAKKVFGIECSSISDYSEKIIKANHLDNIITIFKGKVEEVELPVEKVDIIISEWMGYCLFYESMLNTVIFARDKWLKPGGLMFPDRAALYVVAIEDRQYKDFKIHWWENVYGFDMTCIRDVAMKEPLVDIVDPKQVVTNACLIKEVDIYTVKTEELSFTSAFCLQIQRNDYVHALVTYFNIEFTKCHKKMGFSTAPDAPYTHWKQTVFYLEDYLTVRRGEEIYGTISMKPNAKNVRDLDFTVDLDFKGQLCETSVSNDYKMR

## CCOCC1(COCC)CCC(c2n[nH]cc2CN(C)CCNC)CC1 [Compound A]
[1]; 150 mg/kg QD oral, Day 59
  Body weight Difference (vs. vehicle): −3%
[1]; 300 mg/kg QD oral, Day 59
  Body weight Difference (vs. vehicle): −4%
[1]; 450 mg/kg QD oral, Day 59
  Body weight Difference (vs. vehicle): −7%
[1]; 600 mg/kg QD oral, arm terminated at day 31
  Body weight Difference (vs. vehicle): −17%
[1]; ACHN, 600 mg/kg daily, dosing group terminated on day 31
  body weight loss: Significant body weight loss
[2]
  % Cytotoxic (cell lines with negative Ymin−T0): 0%
  % gIC100 < 2 μM (of cell lines): 0%
[3]; 0.4 μM Compound A
  time after which increases in SDMA were apparent: 48 h
  time at which increases in MMA were apparent: ≤ 24 h
  time at which increases in MMA were near maximal: ≤ 48 h
  time required for maximal decrease in the 45 kDa ADMA band: 72 to 96 h
[3]; [28]
  time for ADMA to return to baseline after washout: ≤ 24 h
  time for MMA to return to baseline after washout: ≤ 24 h
  time for SDMA to return to baseline after washout: ≤ 96 h
[4]
  inhibition of activity: failed to inhibit
[5]; 6-day, NSC-LC, 25 cell lines
  % Cytotoxic (cell lines with negative Ymin−T0): 16%
  % gIC100 < 2 μM (of cell lines): 0%
  Median gIC100: 29.33 µM
[5]; MTAP High
  IC50: 5 µM
  Median % Ymin − T0: 141%
[5]; MTAP Low
  IC50: 3 µM
  Median % Ymin − T0: 237%
[6]
  % Cytotoxic (cell lines with negative Ymin−T0): 0%
  % gIC100 < 2 μM (of cell lines): 0%
  Median gIC100: 29.35 µM
[7]; 6-day, Total, 196 cell lines
  % Cytotoxic (cell lines with negative Ymin−T0): 23%
  % gIC100 < 2 μM (of cell lines): 4%
[7]; [29]
  IC50: 2120 nM
[8]
  IC50: 3 to 5 nM
[9]; 6-day, Lymphoma, 59 cell lines
  % Cytotoxic (cell lines with negative Ymin−T0): 54%
  % gIC100 < 2 μM (of cell lines): 14%
[9]; MTAP High
  IC50: 600 nM
[9]; MTAP Low
  IC50: 100 nM
[9]; Lymphoma, MTAP High
  Median % Ymin − T0: 17%
  Median gIC100: 24.4 µM
[9]; Lymphoma, MTAP Low
  Median % Ymin − T0: −89%
  Median gIC100: 5.3 µM
[10]; beginning after 3 days of treatment
  Compound A concentrations giving accumulation of cells in sub-G1: ≥ 1000 nM
[10]; by day 7
  Compound A concentrations giving increase in the sub-G1 population: ≥ 100 nM
[11]
  Compound A concentration at which sub-G1 effect was evident: 10 µM
[12]
  Compound A concentration at which sub-G1 effect was evident: 10 µM
[13]; 6-day, Breast, 29 cell lines
  % Cytotoxic (cell lines with negative Ymin−T0): 10%
  % gIC100 < 2 μM (of cell lines): 0%
  Median gIC100: 29.36 µM
[13]; Breast, MTAP High
  Median % Ymin − T0: 174%
  Median gIC100: 29.4 µM
[13]; Breast, MTAP Low
  Median % Ymin − T0: 188%
[13]; 144 h, read-out: median gIC50, 6-day, TNBC cell lines
  IC50: 3.6 µM
[13]; 144 h, read-out: median gIC50, 6-day, non-TNBC cell lines
  IC50: 6.8 µM
[13]; read-out: Median gIC50, Breast, MTAP High
  IC50: 4.9 µM
[13]; read-out: Median gIC50, Breast, MTAP Low
  IC50: 10.2 µM
[14]
  IC50: 100 ± 50 nM
[15]
  IC50: 90 ± 30 nM
[16]
  IC50: 50 ± 30 nM
[17]
  IC50: 20 ± 10 nM
[18]
  concentration at which caspase cleavage occurred: 30 µM
[19]
  gIC100: 29.33 ± 0.00 µM
[20]; 6-day, Melanoma, 7 cell lines
  % Cytotoxic (cell lines with negative Ymin−T0): 0%
  % gIC100 < 2 μM (of cell lines): 0%
  Median gIC100: 29.33 µM
[20]; MTAP High
  IC50: 1900 nM
[20]; MTAP Low
  IC50: 300 nM
[20]; Melanoma, MTAP High
  Median % Ymin − T0: 214%
  Median gIC100: 29.4 µM
[20]; Melanoma, MTAP Low
  Median % Ymin − T0: 53%
[21]; 6-day, Bladder, 18 cell lines
  % Cytotoxic (cell lines with negative Ymin−T0): 0%
  % gIC100 < 2 μM (of cell lines): 0%
[21]; Bladder, MTAP High
  Median % Ymin − T0: 658%
  Median gIC100: 29.3 µM
[21]; Bladder, MTAP Low
  Median % Ymin − T0: 257%
  Median gIC100: 29.3 µM
[21]; MTAP High
  IC50: 7.6 µM
[21]; MTAP Low
  IC50: 1.6 µM
[22]; 6-day, Colon, 34 cell lines
  % Cytotoxic (cell lines with negative Ymin−T0): 3%
  % gIC100 < 2 μM (of cell lines): 0%
  Median gIC100: 29.33 µM
[22]; [29]
  IC50: 5.51 µM
[23]
  inhibition of activity: failed to inhibit
[24]; second study, 37.5 mg/kg QD oral, Day 25
  Body weight Difference (vs. vehicle): −5%
[24]; second study, 75 mg/kg BID oral, Day 25
  Body weight Difference (vs. vehicle): −4%
[24]; second study, 75 mg/kg QD oral, Day 25
  Body weight Difference (vs. vehicle): −5%
[24]; second study, 150 mg/kg QD oral, Day 25
  Body weight Difference (vs. vehicle): −7%
[24]; 150 mg/kg QD oral, Day 28
  Body weight Difference (vs. vehicle): −4%
[24]; 300 mg/kg QD oral, Day 28
  Body weight Difference (vs. vehicle): −3%
[24]; 450 mg/kg QD oral, Day 28
  Body weight Difference (vs. vehicle): −8%
[24]; 600 mg/kg QD oral, Day 28
  Body weight Difference (vs. vehicle): −7%
[24]; Toledo, any dose group
  body weight loss: No significant body weight loss
[25]; 6-day, AML, 10 cell lines
  % Cytotoxic (cell lines with negative Ymin−T0): 50%
  % gIC100 < 2 μM (of cell lines): 0%
  Median gIC100: 16.72 µM
[25]; 6-day, of 10 AML cell lines
  number of cell lines in which cytotoxicity was induced: 5
[25]; [29]
  IC50: 540 nM
[26]
  IC50: 3 to 5 nM

## CNCCN(C)Cc1c[nH]nc1[C@H]1CC[C@@]2(CC1)CC(C)(C)CO2 [Compound D]
[27]
  proteins with changes in arginine methylation states (Methylscan): the majority of substrates identified were transcriptional regulators and RNA processing proteins
